In patent US20190010167A1, “INHIBITORS OF THE MENIN-MLL INTERACTION” (Vitae Pharmaceuticals, Inc., priority 2015, published 2019) one finds IC50 data, which are given here for 26 compounds.

Bounds are passed on as bounds.

For the experiment, the target named is T1, wild-type menin / MLL-AF9 fusion protein (Homo sapiens, UniProt O00255).
T1 construct: made in house; host or cells: E. coli (menin); HEK293 cleared lysate (MLL-AF9-FLAG)
T1 sequence (O00255 1-610): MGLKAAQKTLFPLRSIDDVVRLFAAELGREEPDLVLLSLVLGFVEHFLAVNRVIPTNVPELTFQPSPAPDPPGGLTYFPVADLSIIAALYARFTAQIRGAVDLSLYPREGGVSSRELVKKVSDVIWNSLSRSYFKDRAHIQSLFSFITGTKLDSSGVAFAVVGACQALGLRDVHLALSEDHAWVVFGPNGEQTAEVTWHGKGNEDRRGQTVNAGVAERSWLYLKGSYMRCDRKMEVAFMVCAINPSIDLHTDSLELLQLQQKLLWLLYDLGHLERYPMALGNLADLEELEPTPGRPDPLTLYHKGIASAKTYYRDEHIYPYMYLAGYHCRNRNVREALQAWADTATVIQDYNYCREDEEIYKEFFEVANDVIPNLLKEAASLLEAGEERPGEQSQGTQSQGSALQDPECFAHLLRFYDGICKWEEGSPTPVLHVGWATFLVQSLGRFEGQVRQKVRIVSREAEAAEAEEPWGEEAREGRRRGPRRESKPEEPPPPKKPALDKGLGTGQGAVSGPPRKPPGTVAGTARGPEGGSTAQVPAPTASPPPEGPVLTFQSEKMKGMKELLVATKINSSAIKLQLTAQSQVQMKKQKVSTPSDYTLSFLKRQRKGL
The experiment is described as follows: AlphaLISA menin/MLL binding assay, wild-type menin (Assay 1). The following applies: biotinylated wild-type menin 5 nM, MLL-AF9-FLAG lysate. The method, then: Potencies of inhibitor compounds against menin/MLL binding were assessed by AlphaLISA assay using biotinylated (1) wild-type menin or (2) mutated menin (described in Nature (2012) Vol. 482, pp. 542-548) and MLL-AF9 fusion protein bearing a FLAG epitope at its C-terminus. Menin proteins were expressed in E. coli and covalently modified with biotin using EZ-Link™ Sulfo-NHS-Biotin (ThermoFisher Cat. No. 21217) according to manufacturer's protocol. MLL1-1,396 fused to AF91-92 and the C-terminal FLAG peptide was expressed in HEK293 cells and used as a lysate cleared at 21,000×g for 10 min.
Compounds (2 μL of solutions in DMSO) were dispensed in white 96-well half-area plates (Corning Cat. No. 3693) and incubated for 30 min at RT with 5 nM biotinylated menin and appropriate amount of MLL-AF9-FLAG lysate in 40 μL of 50 mM Tris-HCl buffer pH 7.4 containing 5% (v/v) DMSO, 50 mM NaCl, 0.01% (w/v) bovine serum albumin (BSA) and 1 mM DTT. To this incubation mixture, 40 μl of AlphaLISA anti-FLAG acceptor (PerkinElmer Cat. No. AL112C) and streptavidin donor (PerkinElmer Cat. No. 6760002) beads (10 μg/mL each) was added and incubation continued at RT for 60 min. Alpha (amplified luminescent proximity homogeneous assay) signal was measured on an Envision multi-label plate reader at the end of the incubation. All steps were conducted under dim fluorescent light.
These percent inhibition values were regressed against compound concentrations in the assay using four parameter logit non-linear curve fitting (XLFit, IDBS). The IC50 values were derived from the curve fitting as inflection points on the dose-response curves and are set out in Table 1 below.
Background: Bead proximity is the source of the signal in Alpha formats.

As a reminder, the IC50 is the concentration at which inhibition is half-maximal. `O=S(=O)(N[C@H]1CC[C@H](CN2CC3(C2)CN(c2ncnc4sc(CC(F)(F)F)cc24)C3)CC1)C1CC1` [Example 72, N-((1r,4r)-4-((6-(6-(2,2,2-trifluoroethyl)thieno[2,3-d]pyrimidin-4-yl)-2,6-diazaspiro[3.3]heptan-2-yl)methyl)cyclohexyl)cyclopropanesulfonamide]: the IC50 lay within 100 to 1000 nM.
With `FC(F)(F)Cc1cc2c(N3CC4(CN(CC5COC5)C4)C3)ncnc2s1` [Example 73, 4-(6-(oxetan-3-ylmethyl)-2,6-diazaspiro[3.3]heptan-2-yl)-6-(2,2,2-trifluoroethyl)thieno[2,3-d]pyrimidine] the figure was at least 1000 nM; with `FC(F)(F)Cc1cc2c(N3CC4(CN(CC5CC(F)(F)C5)C4)C3)ncnc2s1` [Example 74, 4-(6-((3,3-difluorocyclobutyl)methyl)-2,6-diazaspiro[3.3]heptan-2-yl)-6-(2,2,2-trifluoroethyl)thieno[2,3-d]pyrimidine], at least 1000 nM; with `CC(C)(N)CC(=O)N1CC2(C1)CN(c1ncnc3sc(CC(F)(F)F)cc13)C2` [Example 77, 3-amino-3-methyl-1-(6-(6-(2,2,2-trifluoroethyl)thieno[2,3-d]pyrimidin-4-yl)-2,6-diazaspiro[3.3]heptan-2-yl)butan-1-one], 100 to 1000 nM.
With `O=C(C1CCCNC1)N1CC2(C1)CN(c1ncnc3sc(CC(F)(F)F)cc13)C2` (centres unmarked) [Example 78, piperidin-3-yl(6-(6-(2,2,2-trifluoroethyl)thieno[2,3-d]pyrimidin-4-yl)-2,6-diazaspiro[3.3]heptan-2-yl)methanone] the figure was 100 to 1000 nM; with `O=C(C1CCCCN1)N1CC2(C1)CN(c1ncnc3sc(CC(F)(F)F)cc13)C2` (centres unmarked) [Example 79, piperidin-2-yl(6-(6-(2,2,2-trifluoroethyl)thieno[2,3-d]pyrimidin-4-yl)-2,6-diazaspiro[3.3]heptan-2-yl)methanone], 100 to 1000 nM.
Compound `CC(C)N1CC2(CCN(c3ncnc4sc(CC(F)(F)F)nc34)CC2)C1` [Example 80, 7-(2-isopropyl-2,7-diazaspiro[3.5]nonan-7-yl)-2-(2,2,2-trifluoroethyl)thiazolo[5,4-d]pyrimidine] came in with an IC50 of at least 1000 nM.
Then `CC(C)CN1CC2(CCN(c3ncnc4sc(CC(F)(F)F)nc34)CC2)C1` [Example 81, 7-(2-isobutyl-2,7-diazaspiro[3.5]nonan-7-yl)-2-(2,2,2-trifluoroethyl) thiazolo[5,4-d]pyrimidine], with at least 1000 nM.
Then `FC(F)(F)Cc1nc2c(N3CCC4(CCN(Cc5ccccc5)C4)C3)ncnc2s1` (centres unmarked) [Example 82, 7-(7-benzyl-2,7-diazaspiro[4.4]nonan-2-yl)-2-(2,2,2-trifluoroethyl)thiazolo[5,4-d]pyrimidine], with 100 to 1000 nM; and `Cc1c(CN2CCC3(CCN(c4ncnc5sc(CC(F)(F)F)nc45)C3)C2)ccc2[nH]c(C#N)cc12` (centres unmarked) [Example 83, 4-methyl-5-((7-(2-(2,2,2-trifluoroethyl)thiazolo[5,4-d]pyrimidin-7-yl)-2,7-diazaspiro[4.4]nonan-2-yl)methyl)-1H-indole-2-carbonitrile], with under 100 nM; and `CS(=O)(=O)Nc1ccc(CN2CCC3(CCN(c4ncnc5sc(CC(F)(F)F)nc45)C3)C2)cc1` (centres unmarked) [Example 84, N-(4-((7-(2-(2,2,2-trifluoroethyl)thiazolo[5,4-d]pyrimidin-7-yl)-2,7-diazaspiro[4.4]nonan-2-yl)methyl)phenyl)methanesulfonamide], with under 100 nM.
With `CC(C)CN1CC2(CCN(c3ccnc4ccc(CC(F)(F)F)cc34)CC2)C1` [Example 85, 4-(2-isobutyl-2,7-diazaspiro[3.5]nonan-7-yl)-6-(2,2,2-trifluoroethyl)quinoline] the figure was at least 1000 nM; with `FC(F)(F)Cc1ccc2nccc(N3CCC4(CC3)CN(CC3CC3)C4)c2c1` [Example 87, 4-(2-(cyclopropylmethyl)-2,7-diazaspiro[3.5]nonan-7-yl)-6-(2,2,2-trifluoroethyl)quinoline], at least 1000 nM.
Turning to `CC(C)CN1CC2(CCN(c3ncnc4ccc(CC(F)(F)F)cc34)CC2)C1` [Example 89, 4-(2-isobutyl-2,7-diazaspiro[3.5]nonan-7-yl)-6-(2,2,2-trifluoroethyl) quinazoline], the IC50 is at least 1000 nM.
With `FC(F)(F)Cc1ccc2ncnc(N3CC4(CN(CC5CCOCC5)C4)C3)c2c1` [Example 91, 4-(6-((tetrahydro-2H-pyran-4-yl)methyl)-2,6-diazaspiro[3.3]heptan-2-yl)-6-(2,2,2-trifluoroethyl)quinazoline] the figure was at least 1000 nM.
Then `CCC(C)CN1CCC2(C1)CN(c1ncnc3sc(CC(F)(F)F)cc13)C2` (centres unmarked) [Example 94, 4-(6-(2-methylbutyl)-2,6-diazaspiro[3.4]octan-2-yl)-6-(2,2,2-trifluoroethyl)thieno[2,3-d]pyrimidine], with 100 to 1000 nM; and `FC(F)(F)Cc1cc2c(N3CC4(CCN(Cc5ccccc5)C4)C3)ncnc2s1` [Example 95, 4-(6-benzyl-2,6-diazaspiro[3.4]octan-2-yl)-6-(2,2,2-trifluoroethyl)thieno[2,3-d]pyrimidine], with at least 1000 nM; and `CCC(C)CN1CCC2(CC1)CN(c1ncnc3sc(CC(F)(F)F)cc13)C2` (centres unmarked) [Example 100, 4-(7-(2-methylbutyl)-2,7-diazaspiro[3.5]nonan-2-yl)-6-(2,2,2-trifluoroethyl)thieno[2,3-d]pyrimidine], with 100 to 1000 nM.
With `CC(C)CN1CCC2(CC1)CN(c1ncnc3sc(CC(F)(F)F)cc13)C2` [Example 101, 4-(7-isobutyl-2,7-diazaspiro[3.5]nonan-2-yl)-6-(2,2,2-trifluoroethyl)thieno[2,3-d]pyrimidine] the figure was 100 to 1000 nM.
As to `FC(F)(F)Cc1cc2c(N3CC4(CCN(C[C@H]5CC[C@H](C(F)(F)F)CC5)CC4)C3)ncnc2s1` [Example 102, 6-(2,2,2-trifluoroethyl)-4-(7-(((1r,4r)-4-(trifluoromethyl)cyclohexyl)methyl)-2,7-diazaspiro[3.5]nonan-2-yl)thieno[2,3-d]pyrimidine], the IC50 was 100 to 1000 nM.
Then `CC(=O)Nc1ccc(CN2CCC3(CC2)CN(c2ncnc4sc(CC(F)(F)F)cc24)C3)cc1` [Example 103, N-(4-((2-(6-(2,2,2-trifluoroethyl)thieno[2,3-d]pyrimidin-4-yl)-2,7-diazaspiro[3.5]nonan-7-yl)methyl)phenyl)acetamide], with 100 to 1000 nM.
Then `O=S1(=O)CCC(N2CCC3(CC2)CN(c2ncnc4sc(CC(F)(F)F)cc24)C3)CC1` [Example 104, 4-(2-(6-(2,2,2-trifluoroethyl)thieno[2,3-d]pyrimidin-4-yl)-2,7-diazaspiro[3.5]nonan-7-yl)tetrahydro-2H-thiopyran 1,1-dioxide], with 100 to 1000 nM.
The compound `CC(=O)N[C@H]1CC[C@H](CN2CCC3(CC2)CN(c2ncnc4sc(CC(F)(F)F)cc24)C3)CC1` [Example 105, N-((1r,4r)-4-((2-(6-(2,2,2-trifluoroethyl)thieno[2,3-d]pyrimidin-4-yl)-2,7-diazaspiro[3.5]nonan-7-yl)methyl)cyclohexyl)acetamide] yielded an IC50 of 100 to 1000 nM.
With `FC(F)(F)Cc1cc2c(N3CCC4(CN(Cc5ccccc5)C4)C3)ncnc2s1` [Example 111, 4-(2-benzyl-2,6-diazaspiro[3.4]octan-6-yl)-6-(2,2,2-trifluoroethyl)thieno[2,3-d]pyrimidine] the figure was 100 to 1000 nM; with `Cc1c(CN2CC3(CCN(c4ncnc5sc(CC(F)(F)F)cc45)C3)C2)ccc2[nH]c(C#N)cc12` [Example 112, 4-methyl-5-((6-(6-(2,2,2-trifluoroethyl)thieno[2,3-d]pyrimidin-4-yl)-2,6-diazaspiro[3.4]octan-2-yl)methyl)-1H-indole-2-carbonitrile], 100 to 1000 nM.
With `CC(C)CN1CCC2(CC1)CCN(c1ncnc3sc(CC(F)(F)F)cc13)C2` [Example 113, 4-(8-isobutyl-2,8-diazaspiro[4.5]decan-2-yl)-6-(2,2,2-trifluoroethyl)thieno[2,3-d]pyrimidine] the figure was 100 to 1000 nM.
